In US9636323B2, “Method of treating cancer that overexpresses TopBP1” (Baylor College of Medicine, priority 2014, dated 2017):
Like-named read-outs stand apart in the source and are kept apart here.

Assays:
[1] = test system: E2F1 transcriptional activity; assay: E2F1 activity reporter assay (p14Arf promoter dual luciferase) in HEK293 cells; format: cell-based, human
Experimental: E2F1 activity reporter assay using a p14^ARF promoter-luciferase plasmid was performed as described (Liu et al. 2003). p53 activity reporter assay was performed by a p21^Cip promoter-luciferase plasmid (Liu et al. 2009). p73 activity reporter assay was performed using a pGL3-Bax promoter-luciferase plasmid (Liu et al. 2011). pRL-TK (Renilla luciferase, Promega) was used in all experiments for controlling transfection efficiency. The firefly and Renilla luciferase activities were measured by Dual-Luciferase Reporter System (Promega), and the firefly luciferase activities were normalized against the Renilla activity. All assays were performed in triplicate.

TopBP1/E2F1 interaction = target: T1, TopBP1/E2F1 interaction (Homo sapiens, UniProt Q92547); assay: Co-immunoprecipitation in BT549 cells, TopBP1/E2F1; format: cell-based; conditions: 2.5 μM, 3 h
T1 construct: endogenous in cells; host or cells: MDA-MB468

mutp53/p73 interaction = assay: Anti-p73 immunoprecipitation in MDA-MB468 cells; format: cell-based, human; conditions: 2.5 μM, 5 h
Experimental: (§1) MDA-MB468 cells were lysed with TNN buffer (Liu et al. 2003). An aliquot of cell lysates was lysed with SDS lysis buffer and the rest of cell lysates were incubated with appropriate antibodies or beads at 4° C. for 3-12 h. Anti-FLAG beads (Sigma) were washed three times with TNN buffer. Immunoprecipitates were fractionated by SDS-PAGE and electro-transferred to Immobilon-P membrane (Millipore). Equal amount of protein loading was validated with Ponceau-S staining. The specific signals were detected by incubating with appropriate antibody. All primary antibodies were used at 1:1000 dilution and horseradish peroxidase (HRP)-conjugated secondary antibodies were used at 1:5000 dilution for immunoblotting. E2F1 (C-20 and KH-95), p53 (FL393), p63 (4A4 and H-129), p73 (H-79), p21 (C-19), Bax (N-20), GST (B-14), c-Myc (A14), Miz1 (H-190), Chk1 (G4), Actin (C-2) and GAPDH (6C5) antibodies were purchased from Santa Cruz. TopBP1 (mouse monoclonal) and Aid antibodies were purchased from BD Transduction Laboratories. TopBP1 (BL893, Rabbit polyclonal) antibody was purchased from Bethyl. Mouse monoclonal anti-phospho-γH2AX was purchased from Millipore. Phospho-Chk1 (Ser345) antibody was purchased from Cell signaling. FLAG (F7425) antibody was purchased from Sigma. Mouse monoclonal anti-p73 (IMG-246) was purchased from IMGENEX.

[2] = test system: E2F sites of the p68 subunit of DNA polymerase α promoter; assay: pKL12 / pKL12-E2FAB promoter construct assay; format: cell-based; conditions: wild-type versus mutated E2F sites
[3] = target: T2, TopBP1/mutp53 (R249S) interaction (Homo sapiens, UniProt Q92547); assay: Co-immunoprecipitation in BT549 cells, TopBP1/mutp53; format: cell-based; conditions: 2.5 μM
T2 construct: endogenous in cells; host or cells: BT549

MCF10A cells = assay: MTS assay, MCF10A; format: cell-based, human; conditions: co-treated with doxorubicin, Calcein AM 2.5 μM, 5 h
Experimental: (§2) Then 50 μl of MTS reagent (CellTiter 96® AQueous One Solution Cell Proliferation Assay, Promega) was added to each well, covered from light and incubated for 1 h at 37.0 incubator to develop purple color. The samples were measured at 490 nm in a plate reader (BioTek Synergy HT) against a blank 48-well plate. Each assay was done in triplicate.

[4] = test system: TopBP1 checkpoint activation (Chk1); assay: HU-induced Chk1 activation; format: cell-based
Experimental: as §1

NCI-H23 = conditions: NCI-DTP database; cited from earlier work
NCI-H460 = conditions: NCI-DTP database; cited from earlier work
MDA-MB231 cells = assay: MTS assay, MDA-MB231; format: cell-based, human
Experimental: as §2

[5] = test system: mice (intestinal tissues); assay: Tolerability and acute toxicity in proliferating tissues after i.p. injection; format: in vivo
TopBP1 oligomerization [6] = target: T3, TopBP1 oligomerization (Homo sapiens, UniProt Q92547); assay: TopBP1 oligomerization in MDA-MB468 cells (co-IP of tagged TopBP1, DMP cross-linking); format: cell-based; conditions: 2.5 μM, 5 h
T3 construct: endogenous in cells; host or cells: MDA-MB468
Experimental: as §1, with “IMGENEX. […]” for “IMGENEX.”

TopBP1 oligomerization [7] = assay: as above; format: cell-based, human; conditions: 2.5 μM, 5 h
Experimental: as §1, with “IMGENEX. […]” for “IMGENEX.”

SKOV-3 cells = assay: Caspase-Glo 3/7 assay, SKOV-3 transfected with mutp53(R273H); format: cell-based, human; conditions: cisplatin 20 μM with Calcein AM 5 μM, 20 h
Experimental: The apoptosis was measured by Caspase-Glo® 3/7 assay (Promega) following the manufacturer's protocol. The cells were plated in 6-well tissue culture dish (10^4 cells/well) (BD Falcon) in respective media. […] The blank reactions were prepared per direction. Equal volume of Caspase-Glo® 3/7 reagents were applied to each well. A luminometer (Sirius) was used to quantitate luminescence.

NCI-60 cancer cell lines = conditions: NCI-DTP data, cited from earlier work

T2 sequence (Q92547 whole entry, stated change not applied): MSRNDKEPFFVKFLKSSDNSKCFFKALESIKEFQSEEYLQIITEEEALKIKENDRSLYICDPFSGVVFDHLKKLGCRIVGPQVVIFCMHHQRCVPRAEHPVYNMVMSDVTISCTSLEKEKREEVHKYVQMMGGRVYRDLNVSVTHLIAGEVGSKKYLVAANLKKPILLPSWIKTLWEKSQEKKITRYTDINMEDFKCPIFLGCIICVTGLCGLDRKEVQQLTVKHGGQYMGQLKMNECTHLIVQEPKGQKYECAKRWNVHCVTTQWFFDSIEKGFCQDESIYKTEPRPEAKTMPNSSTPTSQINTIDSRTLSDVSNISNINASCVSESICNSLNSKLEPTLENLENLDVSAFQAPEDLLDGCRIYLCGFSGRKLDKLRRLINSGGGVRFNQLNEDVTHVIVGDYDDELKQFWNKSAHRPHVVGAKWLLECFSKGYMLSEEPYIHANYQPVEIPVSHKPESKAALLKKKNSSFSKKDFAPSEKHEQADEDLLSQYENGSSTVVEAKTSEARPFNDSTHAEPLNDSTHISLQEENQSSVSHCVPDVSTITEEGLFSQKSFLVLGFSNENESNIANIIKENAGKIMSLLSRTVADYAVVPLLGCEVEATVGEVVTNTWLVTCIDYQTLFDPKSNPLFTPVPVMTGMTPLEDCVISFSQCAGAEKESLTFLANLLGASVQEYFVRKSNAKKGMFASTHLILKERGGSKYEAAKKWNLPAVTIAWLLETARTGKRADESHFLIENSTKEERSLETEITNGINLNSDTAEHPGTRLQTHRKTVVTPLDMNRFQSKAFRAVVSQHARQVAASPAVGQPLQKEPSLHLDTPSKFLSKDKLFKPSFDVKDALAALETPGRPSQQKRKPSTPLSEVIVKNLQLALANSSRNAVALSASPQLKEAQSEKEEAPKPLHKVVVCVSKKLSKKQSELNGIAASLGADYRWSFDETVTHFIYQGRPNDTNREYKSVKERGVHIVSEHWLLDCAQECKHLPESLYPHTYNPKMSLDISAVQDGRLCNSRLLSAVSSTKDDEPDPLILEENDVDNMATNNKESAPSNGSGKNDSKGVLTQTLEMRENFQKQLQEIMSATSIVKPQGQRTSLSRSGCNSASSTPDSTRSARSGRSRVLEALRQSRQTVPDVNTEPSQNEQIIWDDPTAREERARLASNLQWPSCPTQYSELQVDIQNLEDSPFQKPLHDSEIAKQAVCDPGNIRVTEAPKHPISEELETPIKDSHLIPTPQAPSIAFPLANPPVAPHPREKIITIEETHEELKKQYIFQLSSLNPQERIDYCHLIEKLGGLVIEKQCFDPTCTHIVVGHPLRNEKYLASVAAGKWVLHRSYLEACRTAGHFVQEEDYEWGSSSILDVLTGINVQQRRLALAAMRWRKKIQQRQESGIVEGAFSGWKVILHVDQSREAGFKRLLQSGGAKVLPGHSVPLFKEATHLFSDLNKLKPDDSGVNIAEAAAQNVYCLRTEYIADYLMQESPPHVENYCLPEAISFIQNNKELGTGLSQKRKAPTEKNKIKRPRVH
T1 sequence (Q92547 whole entry): as the sequence (Q92547 whole entry, stated change not applied) above
T3 sequence (Q92547 whole entry): as the sequence (Q92547 whole entry, stated change not applied) above

CC(=O)OCOC(=O)CN(CC(=O)OCOC(C)=O)Cc1cc2c(cc1OC(C)=O)Oc1cc(OC(C)=O)c(CN(CC(=O)OCOC(C)=O)CC(=O)OCOC(C)=O)cc1C21OC(=O)c2ccccc21 [Calcein AM, Calcein AM (acetoxymethyl ester)]
E2F1 transcriptional activity [1]: enhanced
interaction between TopBP1 and E2F1 (TopBP1/E2F1 interaction): inhibited
binding of p73 to mutp53 (mutp53/p73 interaction): release of p73 from mutp53
induction of promoter activity on pKL12 and pKL12-E2FAB [2]: could only induce the activity on pKL12, but not on pKL12-E2FAB
interaction between TopBP1 and mutp53 [3]: inhibited
doxorubicin sensitivity (MTS) (MCF10A cells): not
HU-induced Chk1 activation [4]: did not block HU-induced Chk1 activation
GI50 (NCI-H23): < 1 µM
GI50 (NCI-H460): < 1 µM
anti-apoptotic activity of overexpressed TopBP1 (doxorubicin resistance) (MDA-MB231 cells; AdTopBP1-infected cells, doxorubicin, Calcein AM 2.5 μM): blocked
proliferation (MTS) (MDA-MB231 cells; increasing concentrations, 5 h, versus MCF10A): preferentially inhibited the proliferation
apparent toxicity in injected mice ([5]; 40 mg/kg): did not manifest any apparent toxicity
Ki-67 staining in intestinal epithelium ([5]; 40 mg/kg, 48 h after injection): did not decrease Ki-67 staining
apoptosis in intestinal epithelium ([5]; 40 mg/kg, 48 h after injection): nor did it induce apoptosis
tolerability of i.p. injections ([5]; throughout the course of treatment): appeared to tolerate
endogenous TopBP1 oligomerization, DMP chemical crosslinking assay (TopBP1 oligomerization [6]): blocked endogenous TopBP1 oligomerization
TopBP1 oligomerization, differentially tagged TopBP1 (TopBP1 oligomerization [7]): inhibit TopBP1 oligomerization
inhibition of cisplatin-induced apoptosis by overexpressed mutp53(R273H) (SKOV-3 cells): partially rescued
GI50 (NCI-60 cancer cell lines; read-out: average GI50 over all 60 cell lines): 0.662 µM
GI50 (NCI-60 cancer cell lines; read-out: highest GI50 of the 60 cell lines): 11 µM
GI50 (NCI-60 cancer cell lines; read-out: lowest GI50 of the 60 cell lines): 0.01 µM
